Measured values as given in patent US20260297094A1, “Tetracyclic Compounds as SMARCA2 and/or SMARCA4 Degraders” (Aurigene Oncology Limited, priority 2023, published 2026).

Columns and labels:
Assay type in all cases: cell-based
MV-4-11 cells = assay: Anti proliferative activity in MV-4-11 cells by Cell Titer Glo (Promega) assay; conditions: Homo sapiens, MV4-11, 72 h, 3 days, CellTiter-Glo
Summary of the method: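 MV-4-11 cells in complete DMEM were exposed to compound for 3 days in triplicate, final DMSO ≤0.3%. Viability was read by CellTiter-Glo ATP luminescence, and % inhibition was taken relative to the DMSO control. EC50 was derived from concentration-response curves.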

SK-MEL-5 cells = assay: Anti proliferative activity in SK-MEL-5 cells by Cell Titer Glo (Promega) assay; conditions: Homo sapiens, retreatment on Day 4, terminated on day 8, CellTiter-Glo
Summary of the method: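 SK-MEL-5 cells treated with 9-point 3-fold dilution series, re-dosed on day 4, read on day 8 by CellTiter-Glo luminescence. EC50 derived from percent proliferation inhibition versus concentration.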

SMARCA2 = target: T1, SMARCA2 (Homo sapiens, UniProt P51531); assay: SMARCA2 degradation in MV-4-11 cells by Western blot; conditions: MV4-11, 16 h, at 100 nM, vs DMSO, read-out: Percent degradation SMARCA2
T1 construct: endogenous in cells; host or cells: MV-4-11 (CRL-9591)

SMARCA4 = target: T2, SMARCA4 (Homo sapiens, UniProt P51532); assay: SMARCA4 degradation in MV-4-11 cells by Western blot; conditions: MV4-11, at 100 nM, 16 hours, vs DMSO, read-out: Percent degradation SMARCA4
T2 construct: endogenous in cells; host or cells: MV-4-11 (CRL-9591)
Protocol: Example-P3: Determination of SMARCA2 and SMARCA4 Degradation in MV-4-11 Cells by Western Blot
MV-4-11 (CRL-9591™) cells were plated in 6 well plates using complete Iscove's Modified Dulbecco's Medium. On the third day, compounds of present invention were added to cells from 10 mM stocks made in DMSO (Sigma Cat no. D2650). Each concentration of compound was tested with DMSO not exceeding final percentage of 0.1 in the cells. Cells were incubated with the compound for 16 hours followed by harvesting with 1×RIPA lysis buffer (Thermo Fischer, catalogue number #89900) containing protease inhibitor cocktail (Sigma catalogue number #P-8340). Equal amount of protein was loaded on SDS PAGE gel for electrophoresis. Western blot was carried out for detection of either SMARCA2 (Cell signalling technologies, catalogue number #11966) or SMARCA4 antibody (Cell signalling technologies, catalogue number #52251). Beta-Tubulin antibody (Cell signalling technologies, catalogue number #86298) was used as loading control. Percentage of SMARCA2 or SMARCA4 degradation was calculated using formula % Degradation=100−(normalized band intensity in treated sample/normalized band intensity in DMSO sample)*100. Here, “ND” refers to Not determined.

T1 sequence (P51531 whole entry): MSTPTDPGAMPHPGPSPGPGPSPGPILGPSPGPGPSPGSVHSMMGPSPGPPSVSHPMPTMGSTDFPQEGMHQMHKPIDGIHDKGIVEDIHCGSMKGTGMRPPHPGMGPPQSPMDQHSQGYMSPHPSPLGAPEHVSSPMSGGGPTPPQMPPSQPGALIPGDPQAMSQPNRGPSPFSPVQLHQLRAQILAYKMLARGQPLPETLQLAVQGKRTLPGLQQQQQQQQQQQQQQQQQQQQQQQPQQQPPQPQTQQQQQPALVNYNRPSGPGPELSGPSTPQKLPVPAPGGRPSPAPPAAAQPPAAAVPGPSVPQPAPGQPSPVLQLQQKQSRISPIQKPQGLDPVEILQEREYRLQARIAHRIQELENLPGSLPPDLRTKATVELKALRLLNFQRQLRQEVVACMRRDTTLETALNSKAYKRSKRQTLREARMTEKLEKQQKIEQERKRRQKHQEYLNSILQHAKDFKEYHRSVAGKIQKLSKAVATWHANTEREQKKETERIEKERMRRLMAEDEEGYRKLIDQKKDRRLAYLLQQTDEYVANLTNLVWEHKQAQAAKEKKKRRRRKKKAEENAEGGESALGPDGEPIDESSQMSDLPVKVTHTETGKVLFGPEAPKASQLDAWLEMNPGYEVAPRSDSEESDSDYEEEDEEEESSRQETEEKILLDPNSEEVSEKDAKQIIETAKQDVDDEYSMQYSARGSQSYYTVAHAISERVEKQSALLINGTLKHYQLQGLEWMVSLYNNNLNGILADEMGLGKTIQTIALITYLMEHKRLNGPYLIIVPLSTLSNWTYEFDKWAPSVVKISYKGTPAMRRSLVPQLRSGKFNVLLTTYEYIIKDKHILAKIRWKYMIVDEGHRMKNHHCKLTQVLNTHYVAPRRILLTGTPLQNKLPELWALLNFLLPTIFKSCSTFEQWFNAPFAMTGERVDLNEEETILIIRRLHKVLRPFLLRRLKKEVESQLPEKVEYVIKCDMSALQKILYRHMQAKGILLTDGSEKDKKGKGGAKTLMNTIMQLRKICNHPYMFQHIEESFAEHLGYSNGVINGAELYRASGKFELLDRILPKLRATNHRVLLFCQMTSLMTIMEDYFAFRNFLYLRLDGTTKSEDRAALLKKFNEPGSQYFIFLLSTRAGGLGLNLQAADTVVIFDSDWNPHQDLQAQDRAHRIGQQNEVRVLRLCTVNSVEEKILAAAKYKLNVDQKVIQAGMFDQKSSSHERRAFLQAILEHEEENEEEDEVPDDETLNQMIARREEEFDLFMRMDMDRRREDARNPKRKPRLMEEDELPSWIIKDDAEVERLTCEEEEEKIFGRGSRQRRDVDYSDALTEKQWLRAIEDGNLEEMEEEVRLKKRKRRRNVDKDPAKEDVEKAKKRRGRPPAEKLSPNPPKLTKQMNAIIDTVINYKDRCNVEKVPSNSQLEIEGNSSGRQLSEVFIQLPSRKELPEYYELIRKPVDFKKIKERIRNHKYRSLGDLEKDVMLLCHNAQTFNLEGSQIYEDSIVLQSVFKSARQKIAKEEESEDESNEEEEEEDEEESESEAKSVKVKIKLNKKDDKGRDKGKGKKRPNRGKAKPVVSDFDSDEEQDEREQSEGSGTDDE
T2 sequence (P51532 whole entry): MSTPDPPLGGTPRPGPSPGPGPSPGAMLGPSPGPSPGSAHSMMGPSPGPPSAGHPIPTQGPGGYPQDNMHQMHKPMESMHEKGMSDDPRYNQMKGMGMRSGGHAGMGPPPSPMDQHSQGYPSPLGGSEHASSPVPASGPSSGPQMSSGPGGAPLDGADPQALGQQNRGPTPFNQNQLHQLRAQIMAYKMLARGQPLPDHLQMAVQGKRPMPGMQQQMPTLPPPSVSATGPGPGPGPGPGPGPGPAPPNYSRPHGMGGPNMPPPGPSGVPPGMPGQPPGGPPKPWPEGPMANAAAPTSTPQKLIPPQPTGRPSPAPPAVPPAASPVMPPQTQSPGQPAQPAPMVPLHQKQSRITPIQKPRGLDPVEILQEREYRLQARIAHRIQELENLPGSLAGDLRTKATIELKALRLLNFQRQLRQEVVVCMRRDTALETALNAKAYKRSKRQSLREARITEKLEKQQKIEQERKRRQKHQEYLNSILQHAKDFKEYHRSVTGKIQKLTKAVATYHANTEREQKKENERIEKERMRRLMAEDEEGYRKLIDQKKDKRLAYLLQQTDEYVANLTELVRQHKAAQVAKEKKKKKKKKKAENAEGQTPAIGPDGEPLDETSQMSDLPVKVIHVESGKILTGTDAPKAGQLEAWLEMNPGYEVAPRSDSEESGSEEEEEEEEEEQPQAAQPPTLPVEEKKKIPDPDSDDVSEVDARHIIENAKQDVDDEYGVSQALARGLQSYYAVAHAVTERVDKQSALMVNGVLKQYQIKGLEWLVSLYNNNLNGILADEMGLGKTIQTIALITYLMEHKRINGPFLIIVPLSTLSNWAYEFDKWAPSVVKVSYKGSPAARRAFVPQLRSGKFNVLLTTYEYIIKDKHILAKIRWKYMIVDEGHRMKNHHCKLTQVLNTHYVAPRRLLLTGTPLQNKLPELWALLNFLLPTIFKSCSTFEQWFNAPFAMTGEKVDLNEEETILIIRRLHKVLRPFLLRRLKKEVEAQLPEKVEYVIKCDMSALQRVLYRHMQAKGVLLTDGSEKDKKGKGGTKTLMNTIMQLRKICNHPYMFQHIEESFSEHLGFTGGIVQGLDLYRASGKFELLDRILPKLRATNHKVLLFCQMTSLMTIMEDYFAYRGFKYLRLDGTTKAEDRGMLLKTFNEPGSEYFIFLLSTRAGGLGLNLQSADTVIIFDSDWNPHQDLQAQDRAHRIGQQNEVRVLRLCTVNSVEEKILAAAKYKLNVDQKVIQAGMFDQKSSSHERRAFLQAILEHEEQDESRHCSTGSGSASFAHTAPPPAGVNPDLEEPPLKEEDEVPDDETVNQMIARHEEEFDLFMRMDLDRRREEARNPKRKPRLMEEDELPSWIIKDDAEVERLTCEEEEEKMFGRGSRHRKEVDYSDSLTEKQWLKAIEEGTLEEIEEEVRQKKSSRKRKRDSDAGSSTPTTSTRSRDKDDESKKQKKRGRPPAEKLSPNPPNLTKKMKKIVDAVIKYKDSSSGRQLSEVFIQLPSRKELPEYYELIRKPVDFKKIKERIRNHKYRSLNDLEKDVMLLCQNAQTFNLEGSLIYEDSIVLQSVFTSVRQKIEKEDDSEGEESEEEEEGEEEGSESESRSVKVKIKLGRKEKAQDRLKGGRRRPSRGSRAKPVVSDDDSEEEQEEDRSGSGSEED

EC50 (MV-4-11 cells)	EC50 (SK-MEL-5 cells)	inhibition at 0.1 µM (SMARCA2)	inhibition at 0.1 µM (SMARCA4)	SMILES
< 10 nM	< 10 nM	99%	100%	Cn1c2cc(N3CCC(N4CCC(c5ccc(NC6CCC(=O)NC6=O)cc5F)CC4)CC3)ccc2n2c3cccc(Br)c3c(=O)nc12 (centres unmarked) [Compound 16, 3-((4-(1′-(4-bromo-7-methyl-5-oxo-5,7-dihydrobenzo[4,5]imidazo[1,2-a]quinazolin-9-yl)-[1,4′-bipiperidin]-4-yl)-3-fluorophenyl)amino)piperidine-2,6-dione]
> 100 nM	10 to 100 nM	86%	75%	CC(C)n1c2cc(N3CCC(N4CCC(c5ccc(C6CCC(=O)NC6=O)cc5)CC4)CC3)ccc2n2c3cccc(N)c3c(=O)nc12 (centres unmarked) [Compound 21, 3-(4-(1′-(4-amino-7-isopropyl-5-oxo-5,7-dihydrobenzo[4,5]imidazo[1,2-a]quinazolin-9-yl)-[1,4′-bipiperidin]-4-yl)phenyl)piperidine-2,6-dione]
